Measurements published in ChEMBL document CHEMBL1152860, “Synthesis and antiproliferative activity of 3-amino-N-phenyl-1H-indazole-1-carboxamides” (2009).
Active and inactive are the calls of the source.

Key:
[1] = test system: LOX IMVI; assay: Growth inhibition of human LOXIMVI cells after 48 hrs by SRB assay; type: functional
[2] = test system: M14; assay: Growth inhibition of human M14 cells after 48 hrs by SRB assay; type: functional; settings: M14, 48 h
[3] = test system: EKVX; assay: Growth inhibition of human EKVX cells after 48 hrs by SRB assay; type: functional
[4] = test system: UACC-62; assay: Growth inhibition of human UACC62 cells after 48 hrs by SRB assay; type: functional; settings: UACC-62, 48 h
[5] = test system: SF-295; assay: Growth inhibition of human SF295 cells after 48 hrs by SRB assay; type: functional; settings: SF-295, 48 h
[6] = test system: HL-60(TB); assay: Growth inhibition of human HL-60(TB) cells after 48 hrs by SRB assay; type: functional; settings: HL-60, 48 h
[7] = test system: MOLT-4; assay: Growth inhibition of human MOLT4 cells after 48 hrs by SRB assay; type: functional; settings: MOLT-4, 48 h
[8] = test system: SF-539; assay: Growth inhibition of human SF539 cells after 48 hrs by SRB assay; type: functional; settings: SF-539, 48 h
[9] = test system: NCI-H522; assay: Growth inhibition of human NCI-H522 cells after 48 hrs by SRB assay; type: functional; settings: NCI-H522, 48 h
[10] = test system: OVCAR-8; assay: Growth inhibition of human OVCAR8 cells after 48 hrs by SRB assay; type: functional; settings: OVCAR-8, 48 h
[11] = test system: SW-620; assay: Growth inhibition of human SW620 cells after 48 hrs by SRB assay; type: functional; settings: SW-620, 48 h
[12] = test system: T47D; assay: Growth inhibition of human T47D cells after 48 hrs by SRB assay; type: functional
[13] = test system: RXF 393; assay: Growth inhibition of human […] cells after 48 hrs by SRB assay; type: functional; settings: RXF 393, 48 h
[14] = test system: PC-3; assay: Growth inhibition of human PC3 cells after 48 hrs by SRB assay; type: functional; settings: PC-3, 48 h
[15] = test system: KM12; assay: Growth inhibition of human KM12 cells after 48 hrs by SRB assay; type: functional; settings: KM12, 48 h
[16] = test system: SN12C; assay: Growth inhibition of human SN12C cells after 48 hrs by SRB assay; type: functional
[17] = test system: NCI-H23; assay: Growth inhibition of human NCI-H23 cells after 48 hrs by SRB assay; type: functional; settings: NCI-H23, 48 h
[18] = test system: K562; assay: Growth inhibition of human K562 cells after 48 hrs by SRB assay; type: functional; settings: K562, 48 h
[19] = test system: DU-145; assay: Growth inhibition of human DU145 cells after 48 hrs by SRB assay; type: functional; settings: DU-145, 48 h
[20] = test system: K562; assay: Cell cycle arrest in human K562 cells assessed as accumulation at G2/M phase at 140 uM after 24 hrs using propidium iodide staining by flow cytometry; type: functional, cell-based
[21] = test system: UO-31; assay: Growth inhibition of human UO31 cells after 48 hrs by SRB assay; type: functional; settings: UO-31, 48 h
[22] = test system: HT-29; assay: Growth inhibition of human HT-29 cells after 48 hrs by SRB assay; type: functional; settings: HT-29, 48 h
[23] = test system: U-251; assay: Growth inhibition of human U251 cells after 48 hrs by SRB assay; type: functional; settings: U-251, 48 h
[24] = test system: ACHN; assay: Growth inhibition of human ACHN cells after 48 hrs by SRB assay; type: functional
[25] = test system: OVCAR-3; assay: Growth inhibition of human OVCAR-3 cells after 48 hrs by SRB assay; type: functional; settings: OVCAR-3, 48 h
[26] = test system: RPMI-8226; assay: Growth inhibition of human RPMI8226 cells after 48 hrs by SRB assay; type: functional; settings: RPMI-8226, 48 h
[27] = test system: K562; assay: Cell cycle arrest in human K562 cells assessed as accumulation at S phase at 140 uM after 24 hrs using propidium iodide staining by flow cytometry; type: functional, cell-based
[28] = test system: TK-10; assay: Growth inhibition of human TK10 cells after 48 hrs by SRB assay; type: functional; settings: TK-10, 48 h
[29] = test system: CAKI-1; assay: Growth inhibition of human Caki1 cells after 48 hrs by SRB assay; type: functional; settings: CAKI-1, 48 h
[30] = test system: NCI-H322M; assay: Growth inhibition of human NCI-H322M cells after 48 hrs by SRB assay; type: functional
[31] = test system: HCT-116; assay: Growth inhibition of human HCT116 cells after 48 hrs by SRB assay; type: functional; settings: HCT-116, 48 h
[32] = test system: MDA-MB-231; assay: Growth inhibition of human MDA-MB-231 cells after 48 hrs by SRB assay; type: functional; settings: MDA-MB-231, 48 h
[33] = test system: SF-268; assay: Growth inhibition of human SF268 cells after 48 hrs by SRB assay; type: functional; settings: SF-268, 48 h
[34] = test system: SNB-75; assay: Growth inhibition of human SNB75 cells after 48 hrs by SRB assay; type: functional; settings: SNB-75, 48 h
[35] = test system: MCF7; assay: Growth inhibition of human MCF7 cells after 48 hrs by SRB assay; type: functional; settings: MCF7, 48 h
[36] = test system: UACC-257; assay: Growth inhibition of human UACC257 cells after 48 hrs by SRB assay; type: functional; settings: UACC-257, 48 h
[37] = test system: HOP-92; assay: Growth inhibition of human HOP92 cells after 48 hrs by SRB assay; type: functional; settings: HOP-92, 48 h
[38] = test system: OVCAR-4; assay: Growth inhibition of human OVCAR4 cells after 48 hrs by SRB assay; type: functional; settings: OVCAR-4, 48 h
[39] = test system: A498; assay: Growth inhibition of human A498 cells after 48 hrs by SRB assay; type: functional; settings: A498, 48 h
[40] = test system: SK-OV-3; assay: Growth inhibition of human SKOV3 cells after 48 hrs by SRB assay; type: functional; settings: SK-OV-3, 48 h
[41] = test system: COLO 205; assay: Growth inhibition of human COLO205 cells after 48 hrs by SRB assay; type: functional; settings: COLO 205, 48 h
[42] = test system: 786-0; assay: Growth inhibition of human 786-0 cells after 48 hrs by SRB assay; type: functional; settings: 786-0, 48 h
[43] = Growth inhibition of human Hs 578T cells after 48 hrs by SRB assay; type: functional
[44] = test system: NCI/ADR-RES; assay: Growth inhibition of human NCI/ADR-RES cells after 48 hrs by SRB assay; type: functional
[45] = test system: SR; assay: Growth inhibition of human SR cells after 48 hrs by SRB assay; type: functional
[46] = test system: SK-MEL-2; assay: Growth inhibition of human SK-MEL-2 cells after 48 hrs by SRB assay; type: functional; settings: SK-MEL-2, 48 h
[47] = test system: HCC 2998; assay: Growth inhibition of human HCC2998 cells after 48 hrs by SRB assay; type: functional; settings: HCC 2998, 48 h
[48] = test system: SK-MEL-28; assay: Growth inhibition of human SK-MEL-28 cells after 48 hrs by SRB assay; type: functional; settings: SK-MEL-28, 48 h
[49] = test system: OVCAR-5; assay: Growth inhibition of human OVCAR5 cells after 48 hrs by SRB assay; type: functional; settings: OVCAR-5, 48 h
[50] = test system: SNB-19; assay: Growth inhibition of human SNB19 cells after 48 hrs by SRB assay; type: functional; settings: SNB-19, 48 h
[51] = test system: NCI-H226; assay: Growth inhibition of human NCI-H226 cells after 48 hrs by SRB assay; type: functional; settings: NCI-H226, 48 h
[52] = test system: A549; assay: Growth inhibition of human A549 cells after 48 hrs by SRB assay; type: functional; settings: A549, 48 h
[53] = test system: SK-MEL-5; assay: Growth inhibition of human SK-MEL-5 cells after 48 hrs by SRB assay; type: functional; settings: SK-MEL-5, 48 h
[54] = test system: HOP-62; assay: Growth inhibition of human HOP62 cells after 48 hrs by SRB assay; type: functional; settings: HOP-62, 48 h
[55] = test system: NCI-H460; assay: Growth inhibition of human NCI-H460 cells after 48 hrs by SRB assay; type: functional; settings: NCI-H460, 48 h
[56] = test system: BT-549; assay: Growth inhibition of human BT549 cells after 48 hrs by SRB assay; type: functional; settings: BT-549, 48 h
[57] = test system: IGROV-1; assay: Growth inhibition of human IGROV1 cells after 48 hrs by SRB assay; type: functional; settings: IGROV-1, 48 h
[58] = test system: Malme-3M; assay: Growth inhibition of human MALME-3M cells after 48 hrs by SRB assay; type: functional
[59] = test system: MDA-MB-435; assay: Growth inhibition of human MDA-MB-435 cells after 48 hrs by SRB assay; type: functional; settings: MDA-MB-435, 48 h
[60] = test system: HCT-15; assay: Growth inhibition of human HCT15 cells after 48 hrs by SRB assay; type: functional; settings: HCT-15, 48 h
[61] = test system: K562; assay: Cell cycle arrest in human K562 cells assessed as accumulation at G2/M phase at 180 uM after 24 hrs using propidium iodide staining by flow cytometry; type: functional, cell-based
[62] = test system: K562; assay: Cell cycle arrest in human K562 cells assessed as accumulation at S phase at 180 uM after 24 hrs using propidium iodide staining by flow cytometry; type: functional, cell-based
[63] = test system: CCRF-CEM; assay: Growth inhibition of human CCRF-CEM cells after 48 hrs by SRB assay; type: functional
[64] = read-out: LC50 (the source's name)

O=C(Nc1cc(C(F)(F)F)ccc1F)Nc1n[nH]c2ccccc12
> 100 µM: GI50 [1] | GI50 [2] | GI50 [3] | GI50 [4] | GI50 [5] | GI50 [6] | GI50 [7] | GI50 [8] | GI50 [9] | GI50 [10] | GI50 [11] | TGI [12] | CC50 [12, 64] | GI50 [13] | GI50 [14] | GI50 [15] | GI50 [16] | GI50 [17] | GI50 [18] | GI50 [19] | GI50 [21] | GI50 [22] | GI50 [23] | GI50 [24] | GI50 [25] | GI50 [26] | GI50 [28] | GI50 [29] | GI50 [30] | GI50 [31] | GI50 [32] | GI50 [33] | GI50 [36] | GI50 [37] | GI50 [38] | GI50 [39] | GI50 [40] | GI50 [41] | GI50 [42] | GI50 [43] | GI50 [44] | GI50 [46] | GI50 [47] | GI50 [48] | GI50 [49] | GI50 [50] | GI50 [51] | GI50 [52] | GI50 [53] | GI50 [54] | GI50 [55] | GI50 [56] | TGI [57] | CC50 [57, 64] | GI50 [58] | GI50 [59] | GI50 [60]
55.4 µM: GI50 [45]
0.215 µM: GI50 [12]
40.1 µM: GI50 [34]
18.2 µM: GI50 [35]
active: Activity [20] | Activity [27]
0.758 µM: GI50 [57]

COc1ccccc1NC(=O)n1nc(N)c2ccccc21
> 100 µM: GI50 [2] | GI50 [4] | GI50 [10] | GI50 [11] | GI50 [12] | GI50 [16] | GI50 [17] | GI50 [18] | GI50 [19] | GI50 [21] | GI50 [22] | GI50 [24] | GI50 [25] | GI50 [29] | GI50 [30] | GI50 [31] | GI50 [33] | CC50 [35, 64] | GI50 [36] | GI50 [63] | GI50 [38] | GI50 [39] | GI50 [40] | GI50 [41] | GI50 [42] | GI50 [48] | GI50 [49] | GI50 [50] | GI50 [51] | GI50 [52] | GI50 [53] | GI50 [58] | GI50 [59]
98.7 µM: GI50 [23]
45.7 µM: GI50 [13]
60.9 µM: GI50 [8]
92.1 µM: GI50 [1]
73.6 µM: GI50 [60]
64.6 µM: TGI [35]
37 µM: GI50 [34]
74.3 µM: GI50 [28]
83.1 µM: GI50 [14]
28 µM: GI50 [56]
49.5 µM: GI50 [9]
0.269 µM: GI50 [35]
66.2 µM: GI50 [47]
27.3 µM: GI50 [57]
30.2 µM: GI50 [37]
33.8 µM: GI50 [43]
56.6 µM: GI50 [5]
47.2 µM: GI50 [6]
90.7 µM: GI50 [44]
54 µM: GI50 [7]
39.1 µM: GI50 [15]
100 µM: GI50 [54]
86 µM: GI50 [26]
44.8 µM: GI50 [3]
active: Activity [61] | Activity [62]
78.9 µM: GI50 [55]
46.1 µM: GI50 [32]
92.5 µM: GI50 [45]
